Like-named read-outs stand apart in the source and are kept apart here.
Test system: Ctenocephalides felis
Description: b) Ctenocephalides felis Adulticide Assay: C. felis Single Dose Screen
Mortality of fleas was the primary endpoint in the assay. Fleas were considered dead if they didn't move or were on their sides and unable to walk or right themselves. […] The concentration chosen (1.26 μg/cm^2) was higher than that known to kill 90% of cat fleas (LC90) using the reference compound, permethrin.
The test species was the cat flea (Ctenocephalides felis). The strain used was obtained from external suppliers as pupae and held in the laboratory under testing conditions until the adults had emerged. Fifteen (15) fleas were used in a minimum of four replicates against a single concentration level (approximately 60 fleas). The insects were selected to be in the adult life stage, aged between 3 and 7 days post emergence.
The compounds to be tested were supplied as solids and were prepared in acetone as described below prior to testing. Samples were stored in a refrigerator (5±1° C.) unless otherwise specified.
During the mortality testing, the temperature was maintained at 25±1° C. Humidity was maintained at 75±5%. The base (area=159 mm^2) of a 100 mL glass Erlenmeyer (conical) flask provided the treatment surface. Flasks were pretreated with Coatasil™ glass treatment to maximise bio-availability of test compounds by preventing them from binding to glass the surface. The base of the 100 mL Erlenmeyer flask was treated with 0.5 mL of test sample in acetone and gently swirled. This volume was sufficient to cover the base of the flask. Flasks were left to dry for 24 hours before flea exposure.
Adult cat fleas were placed into a sorting chamber, which allowed fleas to jump into the Erlenmeyer flasks. Fifteen (15) adult cat fleas were collected in each flask. The top of the flasks were then covered in Parafilm™ and small holes were made to allow gas exchange. A 0.5 mL volume of acetone as a solvent control was applied to the base of an Erlenmeyer flask and the testing proceeded in the same manner described above. Cat fleas in the treatment containers were held under testing conditions for 8, 24 and/or 48 hours. Mortality was recorded at 8, 24, 8 and 24, or 24 and 48 hours Pooled 8, 24, 8 and 24, and 24 and 48 hour mortality data were converted to percentages and are summarized by Table 21, below.

SMILES | C. felis Mortality (%) 8 h (8 h, data from laboratory 1) [%] | C. felis Mortality (%) 24 h (24 h, data from laboratory 1) [%] | further results
CC(=NN1CCCCC1)c1cc(Cl)ccc1N(C)S(=O)(=O)C(F)(F)F [Compound 134] | 7 | 14 | –
C/C(=N\NC(=O)Nc1ccc(C(F)(F)F)cc1)c1cc(Cl)ccc1NS(=O)(=O)C(F)(F)F [Compound 208] | 8 | 18 | –
O=S(=O)(Nc1ccc(Cl)cc1C1=NN(c2cccc(Cl)c2)CC1)C(F)(F)F [Compound 231] | 12 | 42 | –
C=CCN(N=C(C)c1cc(Cl)ccc1N(CC=C)S(=O)(=O)C(F)(F)F)c1ccc(Cl)cc1 [Compound 170] | 2 | 24 | –
CC(=NN(C)c1ccccc1Cl)c1cc(Cl)ccc1N(C)S(=O)(=O)C(F)(F)F [Compound 40] | – | 0 | C. felis Mortality (%) 48 h (48 h, data from laboratory 1): 13%
C#CCN(c1ccc(Cl)cc1C(C)=NN(C)c1ccccc1)S(=O)(=O)C(F)(F)F [Compound 137] | 6 | 19 | –
CN(N=C(c1cc(Cl)ccc1NS(=O)(=O)C(F)(F)F)C1CCCCC1)c1ccccc1 [Compound 119] | 7 | 14 | –
CCCN(N=C(C)c1cc(Cl)ccc1NS(=O)(=O)C(F)(F)F)c1cc(Cl)ccc1Cl [Compound 143] | 13 | 53 | –
CC(=NN(c1cc(Cl)cc(Cl)c1)C(C)C)c1cc(Cl)ccc1NS(=O)(=O)C(F)(F)F [Compound 67] | 20 | 85 | –
C=CCN(N=C(C)c1cc(Cl)ccc1NS(=O)(=O)C(F)(F)F)c1ccc(Cl)cc1 [Compound 171] | 7 | 54 | –
CC(=Nn1cc2ccccc2n1)c1cc(Cl)ccc1NS(=O)(=O)C(F)(F)F [Compound 189] | 0 | 2 | –
CCC(=NNC(=O)c1ccc(Cl)cc1Cl)c1cc(Cl)ccc1NS(=O)(=O)C(F)(F)F [Compound 79] | 14 | 92 | –
CC(=Nn1cnc2ccccc2c1=O)c1cc(Cl)ccc1NS(=O)(=O)C(F)(F)F [Compound 186, N-[4-Chloro-2-(1-{4(3)-oxo-quinazolin-3-yl}imino)ethylphenyl]-trifluoromethanesulfonamide] | – | – | C. felis Mortality (%) 8 h: 2%; C. felis Mortality (%) 24 h: 12%
CCC(=NNC(=O)OC)c1cc(Cl)ccc1NS(=O)(=O)C(F)(F)F [Compound 87] | 7 | 12 | –
CCN(N=C(C)c1cc(Cl)ccc1NS(=O)(=O)C(F)(F)F)c1cccc(Cl)c1Cl [Compound 69] | 39 | 92 | –
CC(=NN(c1ccc(Br)cc1)C(C)C)c1cc(Cl)ccc1NS(=O)(=O)C(F)(F)F [Compound 52] | 51 | 100 | –
CC(=NN(C)c1ccccc1)c1ccc(NS(=O)(=O)C(F)(F)F)cc1 [Compound 164] | 8 | 72 | –
CC(=NNc1ccc(C)cc1)c1cc(Cl)ccc1NS(=O)(=O)C(F)(F)F [Compound 155] | 7 | 28 | –
C#CCN(c1ccc(Cl)cc1C(C)=NN1CCCCC1)S(=O)(=O)C(F)(F)F [Compound 133, N-[2-[1-(1-piperidyl)imino]ethyl-4-chlorophenyl]-N-propargyltrifluoromethanesulfonamide] | – | – | C. felis Mortality (%) 8 h: 5%; C. felis Mortality (%) 24 h: 66%
CCCN(N=C(C)c1cc(Cl)ccc1NS(=O)(=O)C(F)(F)F)c1cccc(Cl)c1Cl [Compound 200] | 2 | 58 | –
CC(=NN1CCN(C)CC1)c1cc(Cl)ccc1NS(=O)(=O)C(F)(F)F [Compound 191] | 2 | 48 | –
CCOCN(c1ccc(Cl)cc1C(C)=NN1CCCCC1)S(=O)(=O)C(F)(F)F [Compound 145] | 8 | 35 | –
CC(=NNC(=O)c1ccccc1Cl)c1cc(Cl)ccc1NS(=O)(=O)C(F)(F)F [Compound 58] | 2 | 13 | –

SMILES | C. felis Mortality (%) 8 h (8 h, data from laboratory 1) [%] | C. felis Mortality (%) 24 h (24 h, data from laboratory 1) [%] | further results
COCN(c1ccc(Cl)cc1C(C)=NN1CCCCC1)S(=O)(=O)C(F)(F)F [Compound 146] | 12 | 24 | –
O=S(=O)(Nc1ccc(Cl)cc1C1=NN(c2ccccc2F)CC1)C(F)(F)F [Compound 228] | 14 | 59 | –
Cn1nccc1-c1cc(Cl)ccc1NS(=O)(=O)C(F)(F)F (single isomer, unassigned) [Compound 93, N-[2-(1-methyl-1H-pyrazol-5-yl)-4-chlorophenyl]-trifluoromethanesulfonamide] | – | – | C. felis Mortality (%) 8 h (8 h): 5%; C. felis Mortality (%) 24 h (24 h): 9%
CC(=NN(C)c1ccccc1)c1cc2c(cc1NS(=O)(=O)C(F)(F)F)OCO2 [Compound 172] | 5 | 31 | –
CC(=NN(C)c1ccccc1)c1cccc(NS(=O)(=O)C(F)(F)F)c1 [Compound 163, N-[3-[1-(N′-methyl-N′-phenyl)hydrazono]ethylphenyl]-trifluoromethanesulfonamide] | – | – | C. felis Mortality (%) 8 h: 8%; C. felis Mortality (%) 24 h: 18%
CCC(=NN(CC)C1CCCCC1)c1cc(Cl)ccc1NS(=O)(=O)C(F)(F)F [Compound 218] | 5 | 62 | –
CC(=NNc1ccc(F)cc1)c1ccccc1NS(=O)(=O)C(F)(F)F [Compound 178] | 4 | 29 | –
CC(=NN(C)c1ccccc1)c1cc(NS(=O)(=O)C(F)(F)F)ccc1Cl [Compound 162] | 8 | 58 | –
CC(=Nn1cnc2ccccc21)c1cc(Cl)ccc1NS(=O)(=O)C(F)(F)F [Compound 188] | 2 | 7 | –
CC(=NN(C)c1ccccc1)c1ccccc1NS(=O)(=O)C(F)(F)F [Compound 114, N-[2-[1-(N′-methyl-N′-phenyl)hydrazono]ethyl-phenyl]-trifluoromethanesulfonamide] | – | – | C. felis Mortality (%) 8 h: 56%; C. felis Mortality (%) 24 h: 86%
CCC(=NN1CCCC1)c1cc(Cl)ccc1NS(=O)(=O)C(F)(F)F [Compound 128] | 12 | 36 | –
CN(C)N=C(c1ccccc1)c1cc(Cl)ccc1NS(=O)(=O)C(F)(F)F [Compound 123, N-[2-[1-dimethylhydrazono-1-phenyl]methyl-4-chlorophenyl]-trifluoromethanesulfonamide] | – | – | C. felis Mortality (%) 8 h: 9%; C. felis Mortality (%) 24 h: 45%
CC(=NN1CCCCC1)c1ccc(NS(=O)(=O)C(F)(F)F)cc1 [Compound 167] | 2 | 5 | –
CC(=NN(C)c1cnccn1)c1cc(Cl)ccc1NS(=O)(=O)C(F)(F)F [Compound 206] | – | – | C. felis Mortality (%) 8 h: 7%; C. felis Mortality (%) 24 h: 12%
O=S(=O)(Nc1ccc(Cl)cc1C1=NN(c2ccccc2)CC1)C(F)(F)F [Compound 226] | 0 | 28 | –
CC/C(=N\N(C)C1CCCCC1)c1cc(Cl)ccc1NS(=O)(=O)C(F)(F)F [Compound 217] | 3 | 48 | –
CC(=NN1CCCCC1)c1ccc(C(F)(F)F)cc1NS(=O)(=O)C(F)(F)F [Compound 177] | 3 | 22 | –
CC(=NN(C)c1ccccc1)c1cc(Cl)ccc1N(COC(=O)C(C)(C)C)S(=O)(=O)C(F)(F)F [Compound 111] | 14 | 32 | –
O=S(=O)(Nc1ccc(Cl)cc1C1=NN(c2ccccc2)CC1)C(F)(F)F [Compound 229, N-[4-Chloro-2-(1-phenyl-4,5-dihydro-1H-pyrazol-3-yl)-phenyl]-trifluoromethanesulfonamide] | – | – | C. felis Mortality (%) 8 h (8 h): 18%; C. felis Mortality (%) 24 h (24 h): 37%
CCC(=NN(CC)C1CCCC1)c1cc(Cl)ccc1NS(=O)(=O)C(F)(F)F [Compound 214] | 7 | 61 | –
CC(=NN1CCCCC1)c1ccccc1NS(=O)(=O)C(F)(F)F [Compound 176] | 7 | 31 | –
CC(=NN(C)c1ccc(Cl)cn1)c1cc(Cl)ccc1NS(=O)(=O)C(F)(F)F [Compound 196] | 3 | 32 | –
CCOC(=O)NN=C(CC)c1cc(Cl)ccc1NS(=O)(=O)C(F)(F)F [Compound 88] | 6 | 25 | –
